# Results taken from US20240174695A1, “Spirocycle Containing Bicyclic Heteroaryl Compounds” (Protego Biopharma, Inc., priority 2022, published 2024).
# Tested on: Recombinant amyloidogenic full length light chain protein WIL-FL T46L
# Assay: Differential Scanning Fluorimetry Assay (thermal shift assay); note: test concentration or dose not given here
# Format: binding
# Conditions: Thermal Shift Protein Stability Kit (Biotium), 96-well plates; protein and compounds incubated at RT for 30 min before adding the dye
# Method: Differential Scanning Fluorimetry Assay
# The stabilization effects the compounds have on the immunoglobulin light chain protein were quantitively measured using a thermal shift assay. Recombinant amyloidogenic full length light chain protein WIL-FL T46L was produced in E. coli, purified, and used in the assay. The Thermal Shift Protein Stability Kit from Biotium was used and the assay was done in 96-well plates following the manufacturer's instructions. The protein and compounds were incubated at RT for 30 min before adding the dye and subjected to the thermal shift assay. The thermal stability (Tm) of each sample was then determined using standard curve fitting methods and compared to vehicle. Data are expressed as temperature shift: [Tm]compound−[Tm]vehicle.
# Results • 0-0.5° C.=* • >0.5-1° C.=** • >1-1.5° C.=*** • >1.5-2.5° C.=**** • >2.5° C.=*****
row,Compound,DSF temperature shift: [Tm]compound−[Tm]vehicle
1,Cc1cc(OC[C@H](C)c2ccccc2)cn2nc(C(O)CN3CC4(CN(c5cccc(C(=O)O)n5)C4)NC3=O)nc12 (stereo partly shown) [Compound 86],**** (>1.5-2.5° C.=****)
2,Cc1cc(OC[C@H](C)c2ccccc2)cn2nc(C(O)CN3CC4(CN(c5nccc(C(=O)O)n5)C4)NC3=O)nc12 (stereo partly shown) [Compound 87],***** (>2.5° C.=*****)
3,Cc1cc(OC[C@H](C)c2ccccc2)cn2nc(C(O)CN3CC4(CN(c5nccn6cnnc56)C4)NC3=O)nc12 (stereo partly shown) [Compound 88],***** (>2.5° C.=*****)
4,Cc1c(O)ncnc1N1CC2(CN(CC(O)c3nc4c(C)cc(OC[C@H](C)c5ccccc5)cn4n3)C(=O)N2)C1 (stereo partly shown) [Compound 89],***** (>2.5° C.=*****)
5,Cc1cc(OC[C@H](C)c2ccccc2)cn2nc(CCN3CC4(CCN(C(=O)C5(c6ccccn6)CC5)CC4)NC3=O)nc12 [Compound 90],*** (>1-1.5° C.=***)
6,Cc1cc(OC[C@H](C)c2ccccc2)cn2nc(CCN3CC4(CCN(C(=O)c5ncccn5)CC4)NC3=O)nc12 [Compound 91],**** (>1.5-2.5° C.=****)
7,Cc1cc(OC[C@H](C)c2ccccc2)cn2nc(CCN3CC4(CCN(C(=O)c5ncnn5C)CC4)NC3=O)nc12 [Compound 92],**** (>1.5-2.5° C.=****)
8,Cc1cc(OC[C@H](C)c2ccccc2)cn2nc(CCN3CC4(CCN(C(=O)c5nncn5C)CC4)NC3=O)nc12 [Compound 93],**** (>1.5-2.5° C.=****)
9,Cc1nccnc1N1CCC2(CC1)CN(CCc1nc3c(C)cc(OC[C@H](C)c4ccccc4)cn3n1)C(=O)N2 [Compound 94],**** (>1.5-2.5° C.=****)
10,Cc1cc(OC[C@H](C)c2ccccc2)cn2nc(CCN3CC4(CCN(c5cc(C(F)(F)F)ccn5)CC4)NC3=O)nc12 [Compound 95],*** (>1-1.5° C.=***)
11,Cc1cc(OC[C@H](C)c2ccccc2)cn2nc(CCN3CC4(CCN(c5ccnc(C(F)(F)F)c5)CC4)NC3=O)nc12 [Compound 96],*** (>1-1.5° C.=***)
12,Cc1cc(N2CCC3(CC2)CN(CCc2nc4c(C)cc(OC[C@H](C)c5ccccc5)cn4n2)C(=O)N3)ccn1 [Compound 98],***** (>2.5° C.=*****)
13,Cc1cc(OC[C@H](C)c2ccccc2)cn2nc(CCN3CC4(CCN(c5cc(Cl)nc(S(C)(=O)=O)n5)CC4)NC3=O)nc12 [Compound 99],**** (>1.5-2.5° C.=****)
14,Cc1cc(OC[C@H](C)c2ccccc2)cn2nc(CCN3CC4(CCN(c5ccc(C#N)cn5)CC4)NC3=O)nc12 [Compound 100],**** (>1.5-2.5° C.=****)
15,Cc1nc(F)ccc1N1CCC2(CC1)CN(CCc1nc3c(C)cc(OC[C@H](C)c4ccccc4)cn3n1)C(=O)N2 [Compound 101],** (>0.5-1° C.=**)
16,Cc1cc(OC[C@H](C)c2ccccc2)cn2nc(CCN3CC4(CCN(c5cccc(Cl)n5)CC4)NC3=O)nc12 [Compound 102],*** (>1-1.5° C.=***)
17,Cc1cc(OC[C@H](C)c2ccccc2)cn2nc(CCN3CC4(CCN(c5cccnc5C(F)(F)F)CC4)NC3=O)nc12 [Compound 104],** (>0.5-1° C.=**)
18,Cc1cc(OC[C@H](C)c2ccccc2)cn2nc(CCN3CC4(CCN(c5ccnc(O)c5)CC4)NC3=O)nc12 [Compound 105],***** (>2.5° C.=*****)
19,Cc1cc(OC[C@H](C)c2ccccc2)cn2nc(CCN3CC4(CCN(c5ccnc(S(C)(=O)=O)n5)CC4)NC3=O)nc12 [Compound 106],***** (>2.5° C.=*****)
20,Cc1ncc(N2CCC3(CC2)CN(CCc2nc4c(C)cc(OC[C@H](C)c5ccccc5)cn4n2)C(=O)N3)s1 [Compound 107],**** (>1.5-2.5° C.=****)
21,Cc1noc(N2CCC3(CC2)CN(CCc2nc4c(C)cc(OC[C@H](C)c5ccccc5)cn4n2)C(=O)N3)n1 [Compound 108],***** (>2.5° C.=*****)
22,Cc1cc(OC[C@H](C)c2ccccc2)cn2nc(CCN3CC4(CCN(c5nc(F)cc(F)n5)CC4)NC3=O)nc12 [Compound 109],**** (>1.5-2.5° C.=****)
23,Cc1cc(OC[C@H](C)c2ccccc2)cn2nc(CCN3CC4(CCN(c5cc(F)nc(F)n5)CC4)NC3=O)nc12 [Compound 110],**** (>1.5-2.5° C.=****)
24,Cc1cc(OC[C@H](C)c2ccccc2)cn2nc(CCN3CC4(CCN(c5ccnc(F)n5)CC4)NC3=O)nc12 [Compound 111],**** (>1.5-2.5° C.=****)
25,Cc1cc(OC[C@H](C)c2ccccc2)cn2nc(CCN3CC4(CCN(c5ncc(F)cn5)C4)NC3=O)nc12 (stereo partly shown) [Compound 112],**** (>1.5-2.5° C.=****)

row,Compound,DSF temperature shift: [Tm]compound−[Tm]vehicle
1,Cc1cc(OC[C@H](C)c2ccccc2)cn2nc(CCN3CC4(CCN(c5ncc(F)cn5)CC4)NC3=O)nc12 [Compound 113],***** (>2.5° C.=*****)
2,Cc1cc(OC[C@H](C)c2ccccc2)cn2nc(CCN3CC4(CCN(c5ncc(F)cn5)CC4)OC3=O)nc12 [Compound 114],*** (>1-1.5° C.=***)
3,Cc1cc(OC[C@H](C)c2ccccc2)cn2nc(CCN3CC4(CCN(c5ncccn5)CC4)NC3=O)nc12 [Compound 115],**** (>1.5-2.5° C.=****)
4,"Cc1cc(OC[C@H](C)c2ccccc2)cn2nc(CCN3CC4(CCN(c5nccn6cnnc56)CC4)OC3=O)nc12 [Compound 116, (R)-8-([1,2,4]triazolo[4,3-a]pyrazin-8-yl)-3-(2-(8-methyl-6-(2-phenylpropoxy)-[1,2,4]triazolo[1,5-a]pyridin-2-yl)ethyl)-1-oxa-3,8-diazaspiro[4.5]decan-2-one]",**** (>1.5-2.5° C.=****)
5,Cc1cc(OC[C@H](C)c2ccccc2)cn2nc(CCN3CC4(CCN(c5nccnc5F)CC4)NC3=O)nc12 [Compound 117],**** (>1.5-2.5° C.=****)
6,Cc1ncnc(N2CCC3(CC2)CN(CCc2nc4c(C)cc(OC[C@H](C)c5ccccc5)cn4n2)C(=O)N3)c1C [Compound 118],**** (>1.5-2.5° C.=****)
7,Cc1cc(OC[C@H](C)c2ccccc2)cn2nc(CCN3CC4(CCN(c5ncns5)CC4)NC3=O)nc12 [Compound 119],**** (>1.5-2.5° C.=****)
8,Cc1cc(OC[C@H](C)c2ccccc2)cn2nc(CCN3CC4(CCN(c5ncn(C)n5)CC4)NC3=O)nc12 [Compound 120],**** (>1.5-2.5° C.=****)
9,Cc1ccc(N2CCC3(CC2)CN(CCc2nc4c(C)cc(OC[C@H](C)c5ccccc5)cn4n2)C(=O)N3)nn1 [Compound 121],**** (>1.5-2.5° C.=****)
10,Cc1nnc(N2CCC3(CC2)CN(CCc2nc4c(C)cc(OC[C@H](C)c5ccccc5)cn4n2)C(=O)N3)s1 [Compound 122],**** (>1.5-2.5° C.=****)
11,Cc1nc(N2CCC3(CC2)CN(CCc2nc4c(C)cc(OC[C@H](C)c5ccccc5)cn4n2)C(=O)N3)no1 [Compound 123],**** (>1.5-2.5° C.=****)
12,Cc1nc(N2CCC3(CC2)CN(CCc2nc4c(C)cc(OC[C@H](C)c5ccccc5)cn4n2)C(=O)N3)ns1 [Compound 124],**** (>1.5-2.5° C.=****)
13,Cc1cc(OC[C@H](C)c2ccccc2)cn2nc(CCN3CC4(CCN(S(=O)(=O)c5cccnc5)CC4)NC3=O)nc12 [Compound 125],**** (>1.5-2.5° C.=****)
14,Cc1cc(OC[C@H](C)c2ccccc2)cn2nc(CCN3CC4(CN(c5cccc(C(=O)O)n5)C4)NC3=O)nc12 [Compound 126],*** (>1-1.5° C.=***)
15,Cc1cc(OC[C@H](C)c2ccccc2)cn2nc(CCN3CC4(CN(c5ncc(F)cn5)C4)NC3=O)nc12 [Compound 127],***** (>2.5° C.=*****)
16,Cc1ccc(N2CCC3(CC2)CN(CC(O)c2nc4c(C)cc(OCC5(c6ccccc6)CC5)cn4n2)C(=O)N3)cn1 (stereo not shown) [Compound 128],**** (>1.5-2.5° C.=****)
17,Cc1cnc(N2CCC3(CC2)CN(CCc2nc4c(C)cc(OC[C@H](C)c5ccccc5)cn4n2)C(=O)N3)s1 [Compound 129],***** (>2.5° C.=*****)
18,CCOC(=O)c1ccc(N2CCC3(CC2)CN(CC(O)c2nc4c(C)cc(OCC5(c6ccccc6)CC5)cn4n2)C(=O)N3)cn1 (stereo not shown) [Compound 130],*** (>1-1.5° C.=***)
19,CNC(=O)c1cc(N2CCC3(CC2)CC(=O)N(CC(C)(O)c2nc4c(C)cc(OC[C@H](C)c5ccccc5)cn4n2)C3)ccn1 (stereo partly shown) [Compound 131],*** (>1-1.5° C.=***)
20,CNC(=O)c1cc(N2CCC3(CC2)CN(CC(C)(O)c2nc4c(C)cc(OC[C@H](C)c5ccccc5)cn4n2)C(=O)N3)ccn1 (stereo partly shown) [Compound 132],**** (>1.5-2.5° C.=****)
21,CNC(=O)c1cc(N2CCC3(CC2)CN(CC(O)c2nc4c(C)cc(OCC5(c6ccccc6)CC5)cn4n2)C(=O)N3)ccn1 (stereo not shown) [Compound 133],***** (>2.5° C.=*****)
22,CNC(=O)c1cc(N2CCC3(CC2)CN(Cc2nc4c(C)cc(OC[C@H](C)c5ccccc5)cn4n2)C(=O)N3)ccn1 [Compound 134],**** (>1.5-2.5° C.=****)
23,COC(=O)c1cccc(N2CC3(CN(CCc4nc5c(C)cc(OC[C@H](C)c6ccccc6)cn5n4)C(=O)N3)C2)n1 [Compound 135],***** (>2.5° C.=*****)
24,COC(=O)c1cnc(N2CCC3(CC2)CN(CC(O)c2nc4c(C)cc(OCC5(c6ccccc6)CC5)cn4n2)C(=O)N3)c2nccn12 (stereo not shown) [Compound 136],***** (>2.5° C.=*****)
